Drawing on publication PMC7180948, “New Insights into 4-Anilinoquinazolines as Inhibitors of Cardiac Troponin I–Interacting Kinase (TNNi3K)” (Molecules, 2020), this text covers inhibition for 2 molecules.

Usually inhibition stands for how much of the control response was suppressed.

The target of one test is GAK (Homo sapiens, UniProt O14976). Nature of the test: KINOMEscan at […], single concentration. It counts as binding.
A further test concerns the target T1, ZAK (Homo sapiens, UniProt Q9NYL2).
T1 construct: gene MAP3K20
Nature of the test: KINOMEscan at […], single concentration. It counts as binding.

In another test the target is T2, PDFRB (Homo sapiens, UniProt P09619).
T2 construct: gene PDGFRB
Kind of test: KINOMEscan at […], single concentration. The format is binding.

The target of the next test is T3, MEK5 (Homo sapiens, UniProt Q13163).
T3 construct: gene MAP2K5
T3 sequence (Q13163 whole entry): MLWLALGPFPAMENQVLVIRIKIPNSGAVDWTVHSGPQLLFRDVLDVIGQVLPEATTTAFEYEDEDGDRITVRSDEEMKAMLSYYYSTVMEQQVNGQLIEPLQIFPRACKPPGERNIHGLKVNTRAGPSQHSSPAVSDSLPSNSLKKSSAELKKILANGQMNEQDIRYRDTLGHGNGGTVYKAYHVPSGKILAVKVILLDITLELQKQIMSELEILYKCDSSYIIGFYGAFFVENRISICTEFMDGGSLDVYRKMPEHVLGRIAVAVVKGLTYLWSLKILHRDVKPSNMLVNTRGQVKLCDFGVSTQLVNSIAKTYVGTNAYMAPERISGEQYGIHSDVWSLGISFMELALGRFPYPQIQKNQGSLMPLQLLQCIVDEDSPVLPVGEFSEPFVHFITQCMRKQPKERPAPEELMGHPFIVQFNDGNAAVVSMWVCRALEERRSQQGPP
Nature of the test: KINOMEscan at […], single concentration. It counts as binding.

The next test concerns the target STK36 (Homo sapiens, UniProt Q9NRP7). Kind of test: KINOMEscan at […], single concentration. It counts as binding.
For another test, the target named is T4, YES (Homo sapiens, UniProt P07947).
T4 construct: gene YES1
T4 sequence (P07947 whole entry): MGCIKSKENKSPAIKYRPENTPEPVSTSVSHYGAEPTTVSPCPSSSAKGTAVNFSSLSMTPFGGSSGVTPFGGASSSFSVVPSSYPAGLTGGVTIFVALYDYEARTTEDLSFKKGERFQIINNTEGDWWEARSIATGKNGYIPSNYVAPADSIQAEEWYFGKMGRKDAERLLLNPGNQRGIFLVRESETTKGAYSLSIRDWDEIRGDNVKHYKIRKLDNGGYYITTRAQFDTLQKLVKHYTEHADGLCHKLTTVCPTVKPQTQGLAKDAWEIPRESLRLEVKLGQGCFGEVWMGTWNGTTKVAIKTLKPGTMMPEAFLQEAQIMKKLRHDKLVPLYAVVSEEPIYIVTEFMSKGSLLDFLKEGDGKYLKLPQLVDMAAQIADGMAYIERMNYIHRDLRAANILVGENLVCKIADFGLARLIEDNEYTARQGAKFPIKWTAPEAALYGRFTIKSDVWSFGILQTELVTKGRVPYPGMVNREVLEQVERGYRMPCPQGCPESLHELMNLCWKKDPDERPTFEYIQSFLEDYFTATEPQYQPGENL
Nature of the test: biochemical. Conditions: read-out: 15 at 1 µM % inhibition. Details: KINOMEscan competition binding panel (Eurofins DiscoverX), single concentration, percent inhibition. Here is the method:
(§1) KinomeScan® Assay on 7 and 15 was performed as previously described by EuroFins DiscoverX [24]. GSK114 (7) and 15 were submitted for a KINOMEscan® assay to explore the selectivity profile across >400 human kinases at a compound concentration of 1 µM. […] GSK114 (7) is a narrow-spectrum TNNi3K inhibitor but has some potent off-targets including GAK which has been previously reported for this chemotype. […] If utilized together this set of compounds could be useful to investigate TNNi3K biology.

The target of the next test is T5, IKK-beta (Homo sapiens, UniProt O14920).
T5 construct: gene IKBKB
Nature of the test: biochemical. Details: KINOMEscan competition binding panel (Eurofins DiscoverX), single concentration, percent inhibition. Conditions: read-out: 15 at 1 µM % inhibition. As to the method:
as §1

A further test concerns the target EGFR(L858R,T790M) (Homo sapiens, UniProt P00533, L858R/T790M). Kind of test: biochemical. Details: KINOMEscan competition binding panel (Eurofins DiscoverX), single concentration, percent inhibition. Conditions: read-out: 15 at 1 µM % inhibition. Here is the method:
as §1

A further test has as its target T6, LZK (Homo sapiens, UniProt O43283).
T6 construct: gene MAP3K13
Kind of test: biochemical. Details: KINOMEscan competition binding panel (Eurofins DiscoverX), single concentration, percent inhibition. Conditions: read-out: 15 at 1 µM % inhibition. Here is the method:
as §1

The next test deals with LATS2 (Homo sapiens, UniProt Q9NRM7). Kind of test: biochemical. Conditions: read-out: 15 at 1 µM % inhibition. Details: KINOMEscan competition binding panel (Eurofins DiscoverX), single concentration, percent inhibition. As to the method:
as §1

The target of the next test is T7, ERK3 (Homo sapiens, UniProt Q16659).
T7 construct: gene MAPK6
T7 sequence (Q16659 whole entry): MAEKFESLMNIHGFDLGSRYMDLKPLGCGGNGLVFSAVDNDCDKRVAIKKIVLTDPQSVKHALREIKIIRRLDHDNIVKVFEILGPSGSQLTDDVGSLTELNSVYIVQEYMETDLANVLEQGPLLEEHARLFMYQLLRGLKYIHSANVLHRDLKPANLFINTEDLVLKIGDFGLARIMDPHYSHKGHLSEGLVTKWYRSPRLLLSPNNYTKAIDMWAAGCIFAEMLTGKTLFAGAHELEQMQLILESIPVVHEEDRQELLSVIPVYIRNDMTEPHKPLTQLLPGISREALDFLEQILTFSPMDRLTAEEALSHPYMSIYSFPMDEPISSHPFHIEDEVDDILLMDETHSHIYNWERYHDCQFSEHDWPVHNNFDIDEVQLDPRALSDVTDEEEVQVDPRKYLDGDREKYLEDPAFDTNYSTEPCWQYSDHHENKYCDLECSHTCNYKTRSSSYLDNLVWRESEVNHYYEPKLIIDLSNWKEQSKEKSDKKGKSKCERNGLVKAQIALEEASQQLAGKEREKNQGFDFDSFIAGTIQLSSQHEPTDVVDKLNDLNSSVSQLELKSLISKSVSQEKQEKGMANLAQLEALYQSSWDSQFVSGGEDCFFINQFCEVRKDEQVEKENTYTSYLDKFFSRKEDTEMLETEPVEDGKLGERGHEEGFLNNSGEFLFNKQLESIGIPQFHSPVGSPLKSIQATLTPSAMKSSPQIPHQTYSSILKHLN
Nature of the test: biochemical. Details: KINOMEscan competition binding panel (Eurofins DiscoverX), single concentration, percent inhibition. Conditions: read-out: 15 at 1 µM % inhibition. Here is the method: as §1

Another test concerns the target ACVRL1 (Homo sapiens, UniProt P37023). Nature of the test: biochemical. Details: KINOMEscan competition binding panel (Eurofins DiscoverX), single concentration, percent inhibition. Conditions: read-out: 15 at 1 µM % inhibition. As to the method:
as §1

Another test concerns the target NEK11 (Homo sapiens, UniProt Q8NG66). Kind of test: biochemical. Conditions: read-out: 15 at 1 µM % inhibition. Details: KINOMEscan competition binding panel (Eurofins DiscoverX), single concentration, percent inhibition. Here is the method:
as §1

A further test concerns the target PRKCD (Homo sapiens, UniProt Q05655). Nature of the test: biochemical. Details: KINOMEscan competition binding panel (Eurofins DiscoverX), single concentration, percent inhibition. Conditions: read-out: 15 at 1 µM % inhibition. Here is the method:
as §1

For test [1], the target named is T8, RSK1(Kin.Dom.1-N-terminal) (Homo sapiens, UniProt Q15418).
T8 construct: gene RPS6KA1; Kin.Dom.1-N-terminal
Kind of test: biochemical. Details: KINOMEscan competition binding panel (Eurofins DiscoverX), single concentration, percent inhibition. Conditions: read-out: 15 at 1 µM % inhibition. Here is the method: as §1

A further test concerns the target PAK6 (Homo sapiens, UniProt Q9NQU5). Nature of the test: biochemical. Details: KINOMEscan competition binding panel (Eurofins DiscoverX), single concentration, percent inhibition. Conditions: read-out: 15 at 1 µM % inhibition. As to the method: as §1
The next test concerns the target FLT3 (Homo sapiens, UniProt P36888). Kind of test: biochemical. Details: KINOMEscan competition binding panel (Eurofins DiscoverX), single concentration, percent inhibition. Conditions: read-out: 15 at 1 µM % inhibition. Here is the method:
as §1

The next test addresses FLT3(ITD,D835V) (Homo sapiens, UniProt P36888, D835V/ITD). Kind of test: biochemical. Details: KINOMEscan competition binding panel (Eurofins DiscoverX), single concentration, percent inhibition. Conditions: read-out: 15 at 1 µM % inhibition. Here is the method:
as §1

The next test concerns the target T9, YSK1 (Homo sapiens, UniProt O00506).
T9 construct: gene STK25
Kind of test: biochemical. Details: KINOMEscan competition binding panel (Eurofins DiscoverX), single concentration, percent inhibition. Conditions: read-out: 15 at 1 µM % inhibition. As to the method: as §1

The target in the next test is CSNK2A1 (Homo sapiens, UniProt P68400). Nature of the test: biochemical. Details: KINOMEscan competition binding panel (Eurofins DiscoverX), single concentration, percent inhibition. Conditions: read-out: 15 at 1 µM % inhibition. Here is the method: as §1
Chain of CSNK2A1 (P68400 whole entry): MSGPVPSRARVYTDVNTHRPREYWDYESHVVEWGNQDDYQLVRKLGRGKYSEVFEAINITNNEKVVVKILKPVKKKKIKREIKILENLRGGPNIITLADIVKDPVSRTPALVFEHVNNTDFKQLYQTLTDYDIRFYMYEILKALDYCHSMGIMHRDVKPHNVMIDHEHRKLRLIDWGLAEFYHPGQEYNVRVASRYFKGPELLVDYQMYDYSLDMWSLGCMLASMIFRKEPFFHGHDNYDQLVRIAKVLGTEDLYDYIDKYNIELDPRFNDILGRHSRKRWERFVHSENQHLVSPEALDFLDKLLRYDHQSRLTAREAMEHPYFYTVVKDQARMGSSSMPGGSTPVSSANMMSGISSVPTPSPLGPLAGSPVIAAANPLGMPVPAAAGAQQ
A further test has as its target CDK9 (Homo sapiens, UniProt P50750). Nature of the test: biochemical. Details: KINOMEscan competition binding panel (Eurofins DiscoverX), single concentration, percent inhibition. Conditions: read-out: 15 at 1 µM % inhibition. As to the method:
as §1

The target in another test is T10, CDC2L5 (Homo sapiens, UniProt Q14004).
T10 construct: gene CDK13
Nature of the test: biochemical. Details: KINOMEscan competition binding panel (Eurofins DiscoverX), single concentration, percent inhibition. Conditions: read-out: 15 at 1 µM % inhibition. Here is the method:
as §1

The target in a further test is FLT3(ITD) (Homo sapiens, UniProt P36888, ITD). Kind of test: biochemical. Details: KINOMEscan competition binding panel (Eurofins DiscoverX), single concentration, percent inhibition. Conditions: read-out: 15 at 1 µM % inhibition. Here is the method: as §1
A further test addresses CDKL5 (Homo sapiens, UniProt O76039). Kind of test: biochemical. Details: KINOMEscan competition binding panel (Eurofins DiscoverX), single concentration, percent inhibition. Conditions: read-out: 15 at 1 µM % inhibition. As to the method:
as §1

For another test, the target named is T11, JNK3 (Homo sapiens, UniProt P53779).
T11 construct: gene MAPK10
T11 sequence (P53779 whole entry): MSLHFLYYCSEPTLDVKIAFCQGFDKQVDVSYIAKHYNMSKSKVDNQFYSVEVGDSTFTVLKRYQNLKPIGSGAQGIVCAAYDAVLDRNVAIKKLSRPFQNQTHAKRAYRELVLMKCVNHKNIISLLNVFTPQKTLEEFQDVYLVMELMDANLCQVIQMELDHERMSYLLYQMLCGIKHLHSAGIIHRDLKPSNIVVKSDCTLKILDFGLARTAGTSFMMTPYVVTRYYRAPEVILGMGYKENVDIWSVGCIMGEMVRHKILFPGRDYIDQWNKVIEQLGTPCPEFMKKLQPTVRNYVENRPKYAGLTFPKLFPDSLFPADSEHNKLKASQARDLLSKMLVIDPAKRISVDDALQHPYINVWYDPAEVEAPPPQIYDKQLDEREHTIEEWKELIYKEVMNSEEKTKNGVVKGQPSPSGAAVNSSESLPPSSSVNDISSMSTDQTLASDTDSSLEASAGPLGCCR
Nature of the test: biochemical. Details: KINOMEscan competition binding panel (Eurofins DiscoverX), single concentration, percent inhibition. Conditions: read-out: 15 at 1 µM % inhibition. As to the method: as §1

The next test addresses CDKL1 (Homo sapiens, UniProt Q00532). Kind of test: biochemical. Conditions: read-out: 15 at 1 µM % inhibition. Details: KINOMEscan competition binding panel (Eurofins DiscoverX), single concentration, percent inhibition. As to the method:
as §1

Chain of PAK6 (Q9NQU5 whole entry): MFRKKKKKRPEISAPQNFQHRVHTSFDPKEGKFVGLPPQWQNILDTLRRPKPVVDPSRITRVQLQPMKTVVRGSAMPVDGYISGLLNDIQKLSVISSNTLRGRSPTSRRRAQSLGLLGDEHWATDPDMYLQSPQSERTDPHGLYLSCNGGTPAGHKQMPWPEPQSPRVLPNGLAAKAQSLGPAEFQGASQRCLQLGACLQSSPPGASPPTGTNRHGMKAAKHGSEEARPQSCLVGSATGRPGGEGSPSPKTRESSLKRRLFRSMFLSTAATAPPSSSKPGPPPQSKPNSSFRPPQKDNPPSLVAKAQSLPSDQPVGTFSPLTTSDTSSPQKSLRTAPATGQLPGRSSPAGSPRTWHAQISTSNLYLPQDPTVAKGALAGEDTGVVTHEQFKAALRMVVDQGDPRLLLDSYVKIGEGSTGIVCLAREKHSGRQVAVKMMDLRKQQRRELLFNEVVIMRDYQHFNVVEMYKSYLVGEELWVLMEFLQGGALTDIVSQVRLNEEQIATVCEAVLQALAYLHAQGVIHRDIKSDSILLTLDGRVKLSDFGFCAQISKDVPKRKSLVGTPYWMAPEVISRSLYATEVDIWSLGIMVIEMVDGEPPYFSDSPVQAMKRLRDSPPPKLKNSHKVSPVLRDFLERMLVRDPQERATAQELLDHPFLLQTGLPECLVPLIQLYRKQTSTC
Chain of STK36 (Q9NRP7 whole entry): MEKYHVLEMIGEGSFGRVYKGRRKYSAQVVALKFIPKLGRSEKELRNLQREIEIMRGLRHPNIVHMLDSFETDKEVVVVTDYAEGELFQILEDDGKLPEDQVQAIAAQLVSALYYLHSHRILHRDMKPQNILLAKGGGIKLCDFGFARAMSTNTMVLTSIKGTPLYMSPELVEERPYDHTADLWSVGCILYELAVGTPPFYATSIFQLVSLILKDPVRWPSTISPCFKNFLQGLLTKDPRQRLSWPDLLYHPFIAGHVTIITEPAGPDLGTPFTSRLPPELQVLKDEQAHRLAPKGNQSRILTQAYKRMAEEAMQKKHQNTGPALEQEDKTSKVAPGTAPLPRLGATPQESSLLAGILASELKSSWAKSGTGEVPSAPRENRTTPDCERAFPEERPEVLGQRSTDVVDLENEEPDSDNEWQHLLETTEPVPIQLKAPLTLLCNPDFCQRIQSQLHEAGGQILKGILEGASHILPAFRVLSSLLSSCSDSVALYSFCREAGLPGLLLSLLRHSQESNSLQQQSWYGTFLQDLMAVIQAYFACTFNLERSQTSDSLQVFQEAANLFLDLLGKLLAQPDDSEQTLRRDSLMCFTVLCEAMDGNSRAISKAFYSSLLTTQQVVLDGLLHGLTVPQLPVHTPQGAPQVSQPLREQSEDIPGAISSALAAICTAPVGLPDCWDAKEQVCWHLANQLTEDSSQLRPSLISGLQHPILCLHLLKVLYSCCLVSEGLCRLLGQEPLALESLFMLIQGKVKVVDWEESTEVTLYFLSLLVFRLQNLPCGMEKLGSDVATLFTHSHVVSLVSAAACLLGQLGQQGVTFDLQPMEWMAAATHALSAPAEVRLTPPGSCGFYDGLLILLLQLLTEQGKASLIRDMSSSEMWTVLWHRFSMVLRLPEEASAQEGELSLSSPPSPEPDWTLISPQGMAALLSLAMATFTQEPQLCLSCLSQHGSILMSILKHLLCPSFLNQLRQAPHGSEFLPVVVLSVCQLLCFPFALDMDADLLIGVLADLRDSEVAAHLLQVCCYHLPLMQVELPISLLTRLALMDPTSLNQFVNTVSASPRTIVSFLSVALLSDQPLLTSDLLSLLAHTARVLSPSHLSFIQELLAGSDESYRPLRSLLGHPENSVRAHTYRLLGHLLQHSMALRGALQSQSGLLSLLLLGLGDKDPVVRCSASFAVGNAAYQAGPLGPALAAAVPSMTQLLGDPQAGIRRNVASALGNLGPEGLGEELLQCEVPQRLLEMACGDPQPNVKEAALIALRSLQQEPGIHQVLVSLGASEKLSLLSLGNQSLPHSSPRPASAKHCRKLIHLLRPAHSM
Chain of CDKL1 (Q00532 whole entry): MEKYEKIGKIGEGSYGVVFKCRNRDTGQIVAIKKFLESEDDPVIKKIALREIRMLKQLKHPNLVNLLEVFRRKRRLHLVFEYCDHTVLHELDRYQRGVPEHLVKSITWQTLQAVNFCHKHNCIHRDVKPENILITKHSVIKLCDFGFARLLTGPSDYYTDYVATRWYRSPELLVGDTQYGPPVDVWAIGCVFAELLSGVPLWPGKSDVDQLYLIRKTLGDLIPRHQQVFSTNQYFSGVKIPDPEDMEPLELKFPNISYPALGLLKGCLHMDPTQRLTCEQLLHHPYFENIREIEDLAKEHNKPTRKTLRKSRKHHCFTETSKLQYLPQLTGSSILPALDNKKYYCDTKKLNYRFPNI

With `CNS(=O)(=O)c1ccc(N(C)C)c(Nc2ncnc3cc(OC)c(OC)cc23)c1` [compound 7, 3-((6,7-dimethoxyquinazolin-4-yl)amino)-4-(dimethylamino)-N-methylbenzenesulfonamide], the inhibition at 1 µM at GAK came out at 92%; at ZAK it was 93%; on PDFRB, 91%; on MEK5, 100%; against STK36 it was 94%.
Turning to `CNS(=O)(=O)c1ccc(N(C)C)c(Nc2nc(C)nc3cc(OC)c(OC)cc23)c1` [compound 15, 3-((6,7-dimethoxy-2-methylquinazolin-4-yl)amino)-4-(dimethylamino)-N-methylbenzenesulfonamide], the inhibition at 1 µM was determined as 0% at YES; 37% at IKK-beta; 16% at EGFR(L858R,T790M); 16% at LZK; 14% at LATS2; 18% at ERK3. Further, the inhibition at 1 µM at ACVRL1 worked out at 0%; on NEK11 it was 12%; at PRKCD it was 1%; in test [1], 0%; at PAK6, 3%; on FLT3 it was 10%. The inhibition at 1 µM on FLT3(ITD,D835V) was determined as 26%; on YSK1 it was 13%; on CSNK2A1, 18%; on CDK9 it was 0%; at CDC2L5 it was 23%; on FLT3(ITD), 0%. For the same molecule, the inhibition at 1 µM stood at 19% on CDKL5, 0% at JNK3, 2% at CDKL1 and 92% against MEK5.
